Values after ≈ are worked out from the molar mass of the structure shown. Starred links: 1 amine or outer side, 2 acyl side, 3 side chain; linkers in the order of their positions; H or OH if unused. Positions of bridges follow the written chain, without caps; N, C: chain ends. Non-standard residues stand in square brackets, D forms with d. Residues, ends and D or L forms follow the SMILES beside them. *: point of attachment. pTerphenylCO(4''-OnC5H11) = CCCCCOc1ccc(-c2ccc(-c3ccc(C(=O)*)cc3)cc2)cc1; Orn(4R-OH,5R-OH) = O=C([C@H](C[C@@H](O)[C@@H](O)N[*:3])N[*:1])[*:2]; hTyr(3S-OH,4S-OH) = N[C@H](C(=O)O)[C@H](O)[C@@H](O)c1ccc(O)cc1; X1 = COP(=O)(O)Oc1ccc(C[C@@H](O)[C@H](N[*:1])C(=O)[*:2])cc1; Orn(4R-OH) = O=C([C@H](C[C@@H](O)CN[*:3])N[*:1])[*:2]; Pro(3S-OH,4S-Me) = C[C@H]1CN[C@H](C(=O)O)[C@H]1O; Hyp = O=C(O)[C@@H]1C[C@@H](O)CN1
Legend:
Candida albicans [1] = experiment: In vitro antifungal activity against candida albicans after intraperitoneal administration of the compound; assay type: functional; conditions: ip
Candida albicans [2] = experiment: In vitro antifungal activity against candida albicans; assay type: functional

SMILES	ED50 (Candida albicans [1])	MIC (Candida albicans [2])
CCCCCOc1ccc(-c2ccc(-c3ccc(C(=O)N[C@H]4C[C@@H](O)CNC(=O)[C@@H]5[C@@H](O)[C@@H](C)CN5C(=O)[C@H]([C@@H](C)O)NC(=O)[C@H]([C@H](O)Cc5ccc(OP(=O)(O)OC)cc5)NC(=O)[C@@H]5C[C@@H](O)CN5C(=O)[C@H]([C@@H](C)O)NC4=O)cc3)cc2)cc1 ({pTerphenylCO(4''-OnC5H11)}-[Orn(4R-OH)]T[Hyp][X1]T[Pro(3S-OH,4S-Me)]; lactam 1-C)	0.47 mg/kg	0.312 µg/mL (≈ 0.26 µM)
CCCCCOc1ccc(-c2ccc(-c3ccc(C(=O)N[C@H]4C[C@@H](O)[C@@H](O)NC(=O)[C@@H]5[C@@H](O)[C@@H](C)CN5C(=O)[C@H]([C@@H](C)O)NC(=O)[C@H]([C@H](O)[C@@H](O)c5ccc(O)cc5)NC(=O)[C@@H]5C[C@@H](O)CN5C(=O)[C@H]([C@@H](C)O)NC4=O)cc3)cc2)cc1 [ANIDULAFUNGIN] ({pTerphenylCO(4''-OnC5H11)}-[Orn(4R-OH,5R-OH)]T[Hyp][hTyr(3S-OH,4S-OH)]T[Pro(3S-OH,4S-Me)]; lactam 1-C)	0.32 mg/kg	0.01 µg/mL (≈ 0.00877 µM)
